Tests used:
Assay type in all cases: in vivo
[1] = Acute toxicity on mice, oral; conditions: mouse, in vivo, po, mice weighing 18 to 22 g, orally
Description: (§1) The acute toxicity of the aminoisoquinoline derivatives of the formula (I) were determined on mice weighing 18 to 22 g. The compounds were administered orally. The LD50 values are summarized in Table I. Toxicity data for meprobamate [2-methyl-2-propylpropane-1,3-dioldicarbamate] and phenylbutazon [4-butyl-1,2-diphenylpyrazolidine-3,5-dione] used as reference substances in the pharmacological tests are also given in Table I.

[2] = system: narcosis developed with hexobarbital; experiment: Potentiation of the narcosis developed with hexobarbital; conditions: mice; for ED50: Mus musculus, po; for Therapeutic index: p.o., corresponds to LD50/ED50
Description: The narcosis potentiating effects of the novel compounds having the formula (I) were studied by the method of Kaergaard and al., Arch. Int. […] The compounds studied were administered orally to groups of mice consisting of 6 animals each. To the control group, 20 ml/kg of 0.9 percent sodium chloride solution was orally administered. Then, the animals were treated with an intravenous dosage of 40 mg/kg of hexobarbital/5-(1-cyclohexenyl)-1,5-dimethylbarbituric acid/. According to our evaluation method, a 150 percent prolongation of sleeping period in relation to the control group was regarded as a positive response.
The number of animals with positive responses was related to the total number of animals treated.

[3] = system: mice; experiment: Acute toxicity on mice, oral; conditions: mice weighing 18 to 22 g, orally
Description: as §1

[4] = orally, hexobarbital 40 mg/kg intravenous, positive response = 150 percent prolongation of sleeping period in relation to control

| Compound | LD50 [1] [mg/kg] | ED50 [2, 4] [mg/kg] | Therapeutic index [2] | LD50 p.o. [3] [mg/kg] | ED50 p.o. [2, 4] [mg/kg] |
| --- | --- | --- | --- | --- | --- |
| Cc1c(N)nc(N2CCOCC2)c2ccccc12 [Example 1, 1-morpholinyl-3-amino-4-methylisoquinoline] | 2000 | 100 | 20 |  |  |
| Cc1c(N)nc(N2CCN(c3ccccn3)CC2)c2ccccc12 [Example 2, 1-/4'-(2"-pyridyl)-1'-piperazinyl/-3-amino-4-methylisoquinoline] | 2000 | 74 | 27 |  |  |
| Cc1c(N)nc(N2CCN(c3ccccn3)CC2)c2ccccc12 [Example 3, 1-/4'-(2"-pyridyl)-1'-piperazinyl/-3-amino-4-methylisoquinoline bis/ethanesulfonate/] |  |  | 14.3 | 2000 | 140 |
| Nc1cc2ccccc2c(N2CCOCC2)n1 [Example 4, 1-morpholinyl-3-aminoisoquinoline] | > 2000 |  |  |  |  |
| Nc1cc2ccccc2c(N2CCOCC2)n1 [Example 5, 1-morpholinyl-3-aminoisoquinoline ethanesulfonate] |  |  |  | 2000 |  |
| Nc1cc2ccccc2c(N2CCN(c3ccccn3)CC2)n1 [Example 6, 1-/4'-(2"-pyridyl)-piperazin-1'-yl/-3-aminoisoquinoline] | 2000 | 140 | 14.3 |  |  |
| CCCC(C)(COC(N)=O)COC(N)=O [Meprobamate, 2-methyl-2-propylpropane-1,3-dioldicarbamate, reference compound] |  | 260 | 4.2 |  |  |
